According to US20100022520A1, “MALONYL-COA ACETYLTRANSFERASE INHIBITORS AGAINST ANTIBIOTIC RESISTANT BACTERTIA” (University of Pittsburgh -- Of the Commonwealth System of …, priority 2008, published 2010):
Each block holds one compound with its values, some of them ahead of it.

How the values were obtained:
p53 = experiment: inhibition of p53
caspase = experiment: inhibition of caspase
[1] = tested on: 32D cl 3 mouse hematopoietic progenitor cells; experiment: radioprotection, survival curves of irradiated 32D cl 3 cells; format: cell-based; conditions: for radioprotective effect on cells: 10 μM, compound added before or after radiation; for Do (Gy): compound at 10 μM, ionizing radiation survival curve
Method: To measure the level of radioprotection for compounds in Table 3, a DMSO solution is made for each compound and added to 32D cl 3 cells, a mouse hematopoietic progenitor cell line at a final concentration of 10 μM. The terms “radioprotection” and “radioprotective” refer to the protective effect on normal cells exerted by the captioned compounds when such cells are exposed to ionizing radiation.
FIGS. 2-4 show the survival curves for 32D cl 3 cells in the presence of different compounds of the invention. A strong radioprotective effect is seen in cultures that include the captioned compounds. FIGS. 2 and 3 show cell survival curves when the captioned compounds were added to cell cultures before exposure to radiation. The survival curves in FIG. 4, however, show the radioprotective effect of the inventive compounds when delivered to cell cultures after exposure to ionizing radiation. […] Moreover, the extent of radioprotection in a culture that is pretreated with an inventive compound is similar to that observed in a culture in which such compound is added after exposure to radiation.
The extent of radioprotection afforded by the captioned compounds is determined by measuring the fraction of viable cells in a culture containing the captioned radioprotective agent. The fraction of viable cells is determined by back-extrapolating the linear portion of the shoulder width in a survival curve to the Y-axis.

E. coli FabD = molecular target: T1, E. coli FabD (Escherichia coli, UniProt P0AAI9); experiment: in vitro FabD (MCAT) enzyme inhibition assay, HPLC of CoA peak; format: biochemical; conditions: protocol of Molnos et al.
T1 construct: made in house; host or cells: E. coli
Method: Compounds synthesized using MCR, as described above, were tested for their ability to inhibit FabD using an in vitro inhibition assay. Briefly, FabD and holo-ACP was cloned, and expressed in E. coli according to the protocol of Molnos et al., Anal. Biochem. 2003, 319, 171. The proteins were purified using the ACTA protein purification system. The inhibition study was carried out according to the protocol of Miossec et al., American Society for Microbiology 104th General Meeting, New Orleans, 2004 (LA. Abstract: K-001), and was performed in a final volume of 100 μl in 96-well microtiter plates (IEA/RIA black, flat bottom, half area plates, Costar).
Purified E. coli FabD was diluted in the enzyme dilution buffer (100 mM phosphate buffer pH 7, DTT 1.5 mM, BSA 1 mg/ml [30 ml of Assay buffer+30 mg of BSA]) at ten times the final concentration (0.75 ng/ml). Malonyl-CoA (10 mM, Sigma) was diluted to ten times the final concentration (25 uM) with distilled H2O. Holo-ACP was prepared to 874 μM. […] The reaction mixture was analyzed by anion exchange, high performance liquid chromatography, using a PL-SAX8u 4.6 mm×150 mm column (Polymer Laboratories) and UV-detection (CoA and malonyl-CoA are detected at 254 nm). The percent inhibition of FabD was calculated by integrating the area of the CoA peak in the chromatogram. […]

T1 sequence (P0AAI9 whole entry): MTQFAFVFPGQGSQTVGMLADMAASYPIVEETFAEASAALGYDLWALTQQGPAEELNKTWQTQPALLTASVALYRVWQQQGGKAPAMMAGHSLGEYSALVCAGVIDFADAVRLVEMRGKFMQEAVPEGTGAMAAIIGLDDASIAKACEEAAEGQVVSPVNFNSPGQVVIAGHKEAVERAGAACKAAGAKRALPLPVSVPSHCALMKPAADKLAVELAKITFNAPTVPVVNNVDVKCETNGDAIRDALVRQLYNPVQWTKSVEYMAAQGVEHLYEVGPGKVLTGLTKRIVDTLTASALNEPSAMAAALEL

inhibition of caspase (caspase): inhibit caspase
Structure (SMILES): COC(=O)CNC(=O)C(NC1CCSC1=O)C1CC1 (racemic) [BEB 69]
inhibition of p53 (p53): p53 inhibitors

inhibition of caspase (caspase): inhibit caspase
Structure (SMILES): Cc1cn(CC(NC2CCSC2=O)C(=O)NC(C)(C)C)c(=O)[nH]c1=O (racemic) [SK7]
radioprotective effect on cells [1]: potent radioprotective effect
Do (Gy) [1]: 1.1 ± 0.1 Gy

Structure (SMILES): O=C(NCc1ccccc1)[C@@H]1CSC(=O)[C@H](Cc2ccccc2)N1 (single isomer, unassigned) [BEB 75-1]
radioprotective effect on cells [1]: potent radioprotective effect
Do (Gy) [1]: 0.9 ± 0.1 Gy

Structure (SMILES): Clc1ccc(-c2ncn(CC3CC3)c2-c2c[nH]c3ccccc23)cc1 [BEB 55]
inhibition of p53 (p53): inhibitors of p53
Do (Gy) [1]: 1.1 ± 0.1 Gy

Structure (SMILES): Clc1cccc(Cc2ncn(CC3CC3)c2-c2c[nH]c3ccccc23)c1 [BEB 59]
inhibition of p53 (p53): inhibitors of p53
Do (Gy) [1]: 1.1 ± 0.1 Gy

Structure (SMILES): CC(C)=CCC[C@H](C)CC(NC1CCSC1=O)C(=O)NC(c1ccccc1)c1ccccc1 (stereo partly drawn) [Compound 13a, (S)-4,8-Dimethyl-2-(2-oxo-tetrahydro-thiophen-3-ylamino)-non-7-enoic acid benzhydryl-amide]
ability to inhibit FabD (E. coli FabD): potent inhibitors

Structure (SMILES): Cc1cc(C)c(NC(=O)C(NC2CCSC2=O)C(C)C)c(C)c1 (stereo not shown) [Compound 15a, 3-Methyl-2-(2-oxo-tetrahydro-thiophen-3-ylamino)-N-(2,4,6-trimethyl-phenyl)-butyramide]
ability to inhibit FabD (E. coli FabD): potent inhibitors
